These results are taken from patent US12187701B2, “Taire family kinase inhibitors and uses thereof” (Dana-Farber Cancer Institute, Inc., priority 2018, dated 2025).

Structures are written as SMILES. Like-named read-outs stand apart in the source and are kept apart here.

As a reminder, the IC50 is the concentration that inhibits the measured activity by half.

One test addresses Cdk14/CycY (Homo sapiens (Human), UniProt O94921). Nature of the test: Lanthascreen Eu kinase binding assay for Cdk14/CycY with 30 minute pre-incubation. Particulars: 30 minute pre-incubation of kinase with compound. On the procedure:
Lanthascreen Eu kinase binding assays were conducted for Cdk14/CycY largely as performed in the commercial assay service by Life Technologies, but included a 30 minute pre-incubation step of the kinase with candidate compounds to facilitate covalent bond formation.
On the technique in general: Time-resolved FRET reads energy transfer from a long-lived donor to a nearby acceptor.

The subject of another test is HCT116 cells. Nature of the test: Antiproliferation assay, Cell Titer Glo, 72 hours. Format: cell-based. An outline of the steps:
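HCT116 cells seeded at 750 cells/well in McCoy's 5A with 10% FBS and exposed to four-fold compound dilution series for 72 h at 37 °C, 5% CO2. Viability by CellTiter-Glo luminescence, quadruplicate; IC50 by non-linear regression.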
For orientation: ATP-based viability assays read luminescence as a measure of living cells.

In test [1] the target is T1, Cdk14 (Homo sapiens (Human), UniProt O94921). Nature of the test: Cdk14 33P kinase assay (Reaction Biology Corp.). It is filed as biochemical.
Target sequence in this assay (O94921 whole entry, looked up): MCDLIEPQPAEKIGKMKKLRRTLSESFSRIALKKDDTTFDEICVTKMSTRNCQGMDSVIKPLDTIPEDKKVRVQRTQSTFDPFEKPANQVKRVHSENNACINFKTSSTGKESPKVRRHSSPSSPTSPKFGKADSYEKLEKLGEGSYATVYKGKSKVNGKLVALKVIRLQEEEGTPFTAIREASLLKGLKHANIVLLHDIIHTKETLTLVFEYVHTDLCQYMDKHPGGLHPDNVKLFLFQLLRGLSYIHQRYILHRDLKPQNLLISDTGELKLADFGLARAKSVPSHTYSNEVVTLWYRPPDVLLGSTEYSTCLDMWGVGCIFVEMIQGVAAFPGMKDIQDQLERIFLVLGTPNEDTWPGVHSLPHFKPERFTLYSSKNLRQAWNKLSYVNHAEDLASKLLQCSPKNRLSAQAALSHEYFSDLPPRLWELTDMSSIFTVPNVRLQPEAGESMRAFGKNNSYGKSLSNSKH
Target sequence in this assay (Q8ND76 whole entry partner, looked up): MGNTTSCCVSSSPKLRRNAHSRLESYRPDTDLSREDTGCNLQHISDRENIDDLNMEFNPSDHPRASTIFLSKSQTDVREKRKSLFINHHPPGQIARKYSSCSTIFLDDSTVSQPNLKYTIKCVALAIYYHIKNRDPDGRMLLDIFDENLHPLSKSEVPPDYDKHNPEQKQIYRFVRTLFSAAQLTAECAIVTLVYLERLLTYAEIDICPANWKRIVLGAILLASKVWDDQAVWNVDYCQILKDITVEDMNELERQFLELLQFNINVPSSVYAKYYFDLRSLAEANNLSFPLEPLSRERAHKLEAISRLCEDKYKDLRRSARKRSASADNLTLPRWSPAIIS
The target in test [2] is T1, Cdk14. Nature of the test: Cellular pull down with biotinylated probe, CDK14.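 On all read-outs here: biotinylated probe used at 1 µM in lysates overnight at 4 °C.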 It is filed as cell-based. The settings on record: HEK293 cells overexpressing Cdk14-flag, 4 hours treatment; for Cellular Potency by Pulldown: some cells print Y or N instead of a concentration. The protocol:
HEK293 cells overexpressing a Cdk14-flag fusion protein were treated with candidate compounds for 4 hours. Cells were washed with PBS, harvested and lysed in Pierce IP buffer with protease and phosphatase inhibitors (Roche). […] To enhance pulldown, lysates were incubated at room temperature for an additional 2 hours. […] Beads were then washed 3 times with Pierce IP buffer, then boiled at 95° C. for 5 minutes in 2× LDS+10% β-mercaptoethanol. Proteins of interest engaged by the biotinylated compound were then assessed using western blotting.
Target sequence in this assay (O94921 whole entry): as the sequence (O94921 whole entry, looked up) above

A further test has as its target CDK16/CycY (Homo sapiens (Human), UniProt Q00536). Nature of the test: Lanthascreen Eu kinase binding assay for CDK16/CycY. The protocol:
Lanthascreen Eu kinase binding assays were conducted for CDK16/CycY at Life Technologies.

The target of another test is CDK2/CycA (Homo sapiens (Human), UniProt P24941). Nature of the test: Z'LYTE kinase assay for CDK2/CycA at Km ATP. Format: biochemical.
The next test has as its target CDK12 (Homo sapiens (Human), UniProt Q9NYV4). Nature of the test: Cellular pull down with biotinylated probe, CDK12. Format: cell-based. The settings on record: HEK293 cells, 4 hours treatment; Y/N/slight. On the procedure:
HEK293 cells overexpressing a Cdk14-flag fusion protein were treated with candidate compounds for 4 hours. Cells were washed with PBS, harvested and lysed in Pierce IP buffer with protease and phosphatase inhibitors (Roche). […] To enhance pulldown, lysates were incubated at room temperature for an additional 2 hours. Lysates were then incubated with streptavidin agarose (Thermo scientific, cat. #20349) for 2 hours at 4° C. Beads were then washed 3 times with Pierce IP buffer, then boiled at 95° C. for 5 minutes in 2× LDS+10% β-mercaptoethanol. Proteins of interest engaged by the biotinylated compound were then assessed using western blotting. The results of the cellular pulldown protocol are provided in Tables 1 and 2A, 2B, 2C, and 2D below (Columns titled “CDK2 pulldown,” “CDK9 pulldown,” “CDK12 pulldown blocked,” “CDK14 pulldown blocked,” and “Cellular Potency Pulldown.”)

Test [3] deals with T1, Cdk14. Nature of the test: Protein labeling and mass spectrometry analysis of recombinant Cdk14. The settings on record: 10-fold molar excess of compound, 2 hours, room temperature. It is filed as binding.
Target sequence in this assay (O94921 whole entry): as the sequence (O94921 whole entry, looked up) above
Method: For each analysis, 5 μg protein was injected onto a self-packed reversed phase column ( 1/32″ O.D.×500 um I.D., 5 cm of POROS 50R2 resin). After desalting for four minutes, protein was eluted with an HPLC gradient (0-100% B in 4 minutes, A=0.2M acetic acid in water, B=0.2 M acetic acid in acetonitrile, flow rate=10 μL/min) into an LTQ ion trap mass spectrometer (ThermoFisher). […] After reconstituting in 50% acetonitrile, 1% formic acid, 100 mM ammonium acetate, peptides were analyzed by CE-MS using a ZipChip CE system and autosampler interfaced to a QExactive HF mass spectrometer.^7 (ThermoFisher Scientific, San Jose, CA). Peptide solution was loaded for 30 seconds and separation performed at 500 V/cm on an HR chip for 10 minutes with a background electrolyte consisting of 1% formic acid in 50% acetonitrile. Pressure assist was utilized and started at 1 minute. The mass spectrometer was operated in data dependent mode and subjected the 5 most abundant ions in each MS scan (60 k resolution, 1E6 target, lock mass enabled) to MS/MS (15 k resolution, 2E5 target, 100 ms max inject time). Dynamic exclusion was enabled with a repeat count of 1 and an exclusion time of 6 seconds. MS/MS data was extracted to .mgf using mulitplierz scripts^8,9 and searched against a forward-reverse human NCBI refseq database using Mascot version 2.2. […]
[4] abbreviates: read-out: IC50 CDK14 binding by Lanthascreen.
Where [5] appears, read: read-out: IC50 CDK16 Lanthascreen binding.
Setting [6] is: read-out: IC50 CDK2 Z′LYTE kinase assay.

Chain of CDK16/CycY (Q00536 whole entry): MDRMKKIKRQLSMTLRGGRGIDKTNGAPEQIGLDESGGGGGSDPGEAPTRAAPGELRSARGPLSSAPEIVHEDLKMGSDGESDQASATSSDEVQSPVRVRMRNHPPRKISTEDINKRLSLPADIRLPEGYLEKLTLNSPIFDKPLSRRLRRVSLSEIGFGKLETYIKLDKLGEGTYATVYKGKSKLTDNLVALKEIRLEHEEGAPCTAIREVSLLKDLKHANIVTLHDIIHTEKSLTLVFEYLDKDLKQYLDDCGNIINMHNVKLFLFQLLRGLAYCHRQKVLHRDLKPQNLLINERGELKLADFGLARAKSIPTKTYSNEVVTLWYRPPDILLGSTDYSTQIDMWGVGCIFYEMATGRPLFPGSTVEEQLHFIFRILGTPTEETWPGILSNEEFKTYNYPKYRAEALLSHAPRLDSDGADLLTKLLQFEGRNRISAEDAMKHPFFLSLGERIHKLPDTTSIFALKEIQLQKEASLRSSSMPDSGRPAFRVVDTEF
Chain of CDK16/CycY (Q8ND76 whole entry partner): as the sequence (Q8ND76 whole entry partner, looked up) above
Chain of Cdk14/CycY (O94921 whole entry): as the sequence (O94921 whole entry, looked up) above
Chain of Cdk14/CycY (Q8ND76 whole entry partner): as the sequence (Q8ND76 whole entry partner, looked up) above
Chain of CDK12 (Q9NYV4 whole entry, the tested form may be a part): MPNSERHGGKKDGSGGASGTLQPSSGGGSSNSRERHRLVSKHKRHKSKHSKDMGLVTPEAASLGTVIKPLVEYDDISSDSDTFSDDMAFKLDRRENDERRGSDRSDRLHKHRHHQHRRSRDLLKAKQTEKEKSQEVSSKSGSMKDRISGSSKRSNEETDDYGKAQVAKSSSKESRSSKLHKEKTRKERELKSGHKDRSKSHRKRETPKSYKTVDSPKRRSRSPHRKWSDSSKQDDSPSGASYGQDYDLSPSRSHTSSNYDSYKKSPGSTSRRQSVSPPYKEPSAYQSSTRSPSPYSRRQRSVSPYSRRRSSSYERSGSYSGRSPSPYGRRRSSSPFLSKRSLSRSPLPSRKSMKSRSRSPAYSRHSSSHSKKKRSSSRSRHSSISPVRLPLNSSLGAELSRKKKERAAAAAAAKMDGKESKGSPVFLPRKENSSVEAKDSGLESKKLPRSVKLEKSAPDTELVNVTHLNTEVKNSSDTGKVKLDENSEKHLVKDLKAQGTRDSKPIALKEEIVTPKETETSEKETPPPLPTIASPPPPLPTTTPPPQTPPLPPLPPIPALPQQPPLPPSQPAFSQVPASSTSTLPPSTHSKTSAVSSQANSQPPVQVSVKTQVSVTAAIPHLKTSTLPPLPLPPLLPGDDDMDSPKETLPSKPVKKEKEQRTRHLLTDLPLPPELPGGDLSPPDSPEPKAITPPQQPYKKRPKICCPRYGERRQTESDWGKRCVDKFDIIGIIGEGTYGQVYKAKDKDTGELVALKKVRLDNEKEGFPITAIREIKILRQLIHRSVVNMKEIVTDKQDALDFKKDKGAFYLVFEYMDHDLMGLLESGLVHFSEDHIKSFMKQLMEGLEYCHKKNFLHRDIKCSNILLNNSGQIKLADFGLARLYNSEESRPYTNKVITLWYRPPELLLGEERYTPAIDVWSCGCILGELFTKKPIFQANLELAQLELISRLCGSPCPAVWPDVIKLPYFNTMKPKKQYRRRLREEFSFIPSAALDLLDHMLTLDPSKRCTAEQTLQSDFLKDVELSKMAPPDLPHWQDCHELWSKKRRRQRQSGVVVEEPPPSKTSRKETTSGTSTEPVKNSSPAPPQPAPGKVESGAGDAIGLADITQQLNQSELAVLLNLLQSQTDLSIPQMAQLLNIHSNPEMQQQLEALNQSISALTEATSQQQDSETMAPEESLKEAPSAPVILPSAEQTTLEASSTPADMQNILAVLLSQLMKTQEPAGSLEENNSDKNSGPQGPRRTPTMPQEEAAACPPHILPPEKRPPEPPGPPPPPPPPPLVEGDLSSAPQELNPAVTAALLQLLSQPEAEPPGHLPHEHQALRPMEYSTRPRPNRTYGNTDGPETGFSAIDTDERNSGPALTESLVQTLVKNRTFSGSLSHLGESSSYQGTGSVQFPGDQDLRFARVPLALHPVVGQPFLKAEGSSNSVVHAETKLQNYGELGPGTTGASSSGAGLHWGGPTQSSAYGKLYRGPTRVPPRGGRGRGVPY

`CN(C)C/C=C/C(=O)Nc1cccc(S(=O)(=O)N2CCC(NC(=O)c3n[nH]cc3NC(=O)c3c(F)cc(F)cc3F)CC2)c1` [FMF-04-095-2, (E)-N-(1-((3-(4-(dimethylamino)but-2-enamido)phenyl)sulfonyl)piperidin-4-yl)-4-(2,4,6-trifluorobenzamido)-1H-pyrazole-3-carboxamide]: the IC50 amounted to 10.2 nM at Cdk14/CycY (setting [4]); 90 nM in the test on HCT116 cells (Homo sapiens, HCT-116, 72 h); 380 nM at Cdk14 [1]; 5.2 nM at CDK16/CycY (setting [5]); 3.7 nM on CDK2/CycA (setting [6]). The “Cellular Potency by Pulldown” value on Cdk14 [2] was found to be 500 nM.
`CN(C)C/C=C/C(=O)Nc1cccc(S(=O)(=O)N2CCC(NC(=O)c3n[nH]cc3NC(=O)c3c(F)cccc3F)CC2)c1` [FMF-04-096-2, (E)-4-(2,6-difluorobenzamido)-N-(1-((3-(4-(dimethylamino)but-2-enamido)phenyl)sulfonyl)piperidin-4-yl)-1H-pyrazole-3-carboxamide]: the IC50 at Cdk14/CycY (setting [4]) came out at 3.4 nM; in the test on HCT116 cells (Homo sapiens, HCT-116, 72 h), 157 nM; at Cdk14 [1], 268 nM; on CDK16/CycY (setting [5]) it was 2.6 nM; on CDK2/CycA (setting [6]), 2.6 nM. In addition, the “Cellular Potency by Pulldown” value at Cdk14 [2] amounted to 250 nM.
For the compound `COc1cccc(F)c1C(=O)Nc1c[nH]nc1C(=O)NC1CCN(S(=O)(=O)c2cccc(NC(=O)/C=C/CN(C)C)c2)CC1` [FMF-04-097-2, (E)-N-(1-((3-(4-(dimethylamino)but-2-enamido)phenyl)sulfonyl)piperidin-4-yl)-4-(2-fluoro-6-methoxybenzamido)-1H-pyrazole-3-carboxamide], the IC50 at Cdk14/CycY (setting [4]) is > 1000 nM; in the test on HCT116 cells (Homo sapiens, HCT-116, 72 h), 174 nM; on Cdk14 [1] it was 238 nM; at CDK16/CycY (setting [5]), 2.8 nM; at CDK2/CycA (setting [6]), 3.7 nM. The “Cellular Potency by Pulldown” value on Cdk14 [2] turned out to be 250 nM.
As to `C=CC(=O)Nc1cccc(S(=O)(=O)N2CCC(NC(=O)c3n[nH]cc3NC(=O)c3c(Cl)cc(Cl)cc3Cl)CC2)c1` [FMF-04-159-1, N-(1-((3-acrylamidophenyl)sulfonyl)piperidin-4-yl)-4-(2,4,6-trichlorobenzamido)-1H-pyrazole-3-carboxamide], the IC50 at Cdk14/CycY (setting [4]) worked out at 49 nM; in the test on HCT116 cells (Homo sapiens, HCT-116, 72 h), 25 nM; against Cdk14 [1] it was 1050 nM; at CDK16/CycY (setting [5]), 46.6 nM; on CDK2/CycA (setting [6]), 20.6 nM. At Cdk14 [2], the “Cellular Potency by Pulldown” value was determined as 500 nM.
For `CN(C)C/C=C/C(=O)Nc1cccc(S(=O)(=O)N2CCC(NC(=O)c3n[nH]cc3NC(=O)c3c(Cl)cc(Cl)cc3Cl)CC2)c1` [FMF-04-159-2, (E)-N-(1-((3-(4-(dimethylamino)but-2-enamido)phenyl)sulfonyl)piperidin-4-yl)-4-(2,4,6-trichlorobenzamido)-1H-pyrazole-3-carboxamide], the half-maximal inhibitory concentration (IC50) amounted to 46.6 nM on Cdk14/CycY (read-out: CDK14 IC50 (nM) LanthaScreen); 47 nM on Cdk14/CycY (setting [4]); 450 nM in the test with HCT116 cells; 450 nM with HCT116 cells (Homo sapiens, HCT-116, 72 h); 718 nM against Cdk14 [1]; 10.1 nM at CDK16/CycY (read-out: CDK16 IC50). The IC50 at CDK16/CycY (setting [5]) was determined as 8.2 nM; on CDK2/CycA (read-out: CDK2 IC50), 8.2 nM; on CDK2/CycA (setting [6]), 10.1 nM. Also, the “CDK14 pulldown blocked” value on Cdk14 [2] worked out at 500 nM. The “Cellular Potency by Pulldown” value at Cdk14 [2] stood at 500 nM. In addition, the CDK12 pulldown blocked entry on CDK12 is reported as “slight”. The “MS labeling of CDK14*” value on Cdk14 [3] is 100%.
In the case of `C=CC(=O)Nc1cccc(CN2CCC(NC(=O)c3n[nH]cc3NC(=O)c3c(F)cccc3F)CC2)c1` [FMF-04-160-1, N-(1-(3-acrylamidobenzyl)piperidin-4-yl)-4-(2,6-difluorobenzamido)-1H-pyrazole-3-carboxamide], the IC50 on Cdk14/CycY (setting [4]) came to 64 nM; in the test on HCT116 cells (Homo sapiens, HCT-116, 72 h), 7 nM; on Cdk14 [1] it was 1470 nM; on CDK16/CycY (setting [5]), 120 nM; on CDK2/CycA (setting [6]), 165 nM. In addition, the “Cellular Potency by Pulldown” value at Cdk14 [2] was determined as 500 nM.
In the case of `C=CC(=O)Nc1cccc(CN2CCC(NC(=O)c3n[nH]cc3NC(=O)c3c(Cl)cccc3OC)CC2)c1` [FMF-04-161-1, N-(1-(3-acrylamidobenzyl)piperidin-4-yl)-4-(2-chloro-6-methoxybenzamido)-1H-pyrazole-3-carboxamide], the IC50 at Cdk14/CycY (setting [4]) was determined as 11 nM; with HCT116 cells (Homo sapiens, HCT-116, 72 h), 9 nM; against Cdk14 [1], 557 nM; at CDK16/CycY (setting [5]) it was 12.8 nM; at CDK2/CycA (setting [6]), 50.2 nM. The “Cellular Potency by Pulldown” value on Cdk14 [2] is given as 100 nM.
As for `CCOc1cccc(Cl)c1C(=O)Nc1c[nH]nc1C(=O)NC1CCN(S(=O)(=O)c2cccc(NC(=O)/C=C/CN(C)C)c2)CC1` [FMF-05-118-1, (E)-4-(2-chloro-6-ethoxybenzamido)-N-(1-((3-(4-(dimethylamino)but-2-enamido)phenyl)sulfonyl)piperidin-4-yl)-1H-pyrazole-3-carboxamide], the IC50 with HCT116 cells (Homo sapiens, HCT-116, 72 h) was determined as 102 nM; on CDK16/CycY (read-out: CDK16 IC50), 2.9 nM; at CDK16/CycY (setting [5]), 2.91 nM; on CDK2/CycA (read-out: CDK2 IC50) it was 2.9 nM; on CDK2/CycA (setting [6]) it was 2.95 nM. Further, the “CDK14 pulldown blocked” value on Cdk14 [2] came to 1000 nM. The “Cellular Potency by Pulldown” value at Cdk14 [2] is reported as 1000 nM. The “MS labeling of CDK14*” value on Cdk14 [3] turned out to be 50%.
